The PolyMetriX glass transition set
± gives the standard deviation of the reports.

Row | glass transition temperature [°C] | SMILES
1 | -37.00 | *O[Si](*)(C)CCCOC(=O)c1cc(OC(=O)c2ccc(OCCOCCOCCOCCOC)cc2)ccc1OC(=O)c1ccc(OCCOCCOCCOCCOC)cc1 (repeat unit)
2 | 311.00 | *Oc1ccc(S(=O)(=O)c2ccc(-c3ccc(-c4ccc(S(=O)(=O)c5ccc(*)cc5)cc4)cc3)cc2)cc1 (repeat unit)
3 | 280.00 | *Oc1cccc(NC(=O)c2ccc(C(=O)Nc3ccc(*)cc3)cc2)c1 (repeat unit)
4 | 34.5 | *CC(*)(C)C(=O)OCc1ccc(Cl)c(Cl)c1 (repeat unit)
5 | 126.00 | *Oc1ccc(C(=O)c2cccc(C(=O)c3ccc(*)c(CC)c3)c2)cc1CC (repeat unit)
6 | 58.50 | *CCN(CCCCCCOc1ccc(/C=C/c2ccc([N+](=O)[O-])cc2)cc1)CCOC(=O)Nc1ccc(C)c(NC(=O)O*)c1 (repeat unit)
7 | 125.00 | *Oc1ccc(-c2ccc(OC(*)(Oc3ccccc3)Oc3ccccc3)c(C)c2)cc1C (repeat unit)
8 | 223.50 | *CCCCCCCCc1nc2ccc(-c3ccc4nc(*)oc4c3)cc2o1 (repeat unit)
9 | 79.50 | *Oc1ccc(Cc2ccc(Cc3ccc(OC(*)=O)cc3)cc2)cc1 (repeat unit)
10 | 121.00 | *CC(*)OC(=O)c1ccc(C(C)(C)C)cc1 (repeat unit)
11 | 37.00 | *CC(*)OCCCCCCCCCCCOc1ccc(C(=O)Oc2ccc(C#N)cc2)cc1 (repeat unit)
12 | 131.00 | *CC(*)(C)C(=O)NC(=O)OCCOc1ccc(S(=O)(=O)c2ccc(OCCO)cc2)cc1 (repeat unit)
13 | 125.00 | *=CNc1ccc(CCc2ccc(N=*)cc2)cc1 (repeat unit)
14 | 245.50 | *c1cc(C(=O)NCCCCCCCC)cc(N2C(=O)c3ccc(-c4ccc5c(c4)C(=O)N(*)C5=O)cc3C2=O)c1 (repeat unit)
15 | 15.50 | *Oc1ccc(CC(NC(=O)CCc2ccc(OC(=O)CCCCCCCCC(*)=O)cc2)C(=O)OCCCCCCCC)cc1 (repeat unit)
16 | 105.00 | *CC(*)(C)C(=O)OCCN(CCCC)c1ccc(/N=N/c2ccc(S(=O)(=O)Nc3cc(C)on3)cc2)cc1 (repeat unit)
17 | 168.10 | *Oc1ccc(C(c2ccc(Oc3ccc(C(=O)c4cccc(C(=O)c5ccc(*)cc5)c4)cc3)cc2)(C(F)(F)F)C(F)(F)F)cc1 (repeat unit)
18 | 31.00 | *CC(*)(C)C(=O)OCCCCCCCCCCCn1c2ccccc2c2ccccc21 (repeat unit)
19 | -45.00 | *CCOC(=O)CCCCCCCC(=O)O* (repeat unit)

Row | glass transition temperature [°C] | SMILES
20 | 119.00 | *CCCOC(=O)Nc1ccc(Cc2ccc(NC(=O)O*)cc2)cc1 (repeat unit)
21 | 45.00 | *CC(*)C(=O)OCCCCCCOc1ccc(-c2ccc(C#N)cc2)cc1 (repeat unit)
22 | 319.00 | *C(=O)Nc1ccc(C2(c3ccc(N4C(=O)c5ccc(*)cc5C4=O)cc3)CCCCC2)cc1 (repeat unit)
23 | 62.00 | *OC(=O)c1ccc(SCCCCSc2ccc(C(*)=O)cc2)cc1 (repeat unit)
24 | 78.00 | *CCCCCCOc1ccc(/C=C/c2ccc(O*)c3ccccc23)cc1 (repeat unit)
25 | 245.00 | *c1ccc(Oc2cccc(NC(=O)c3cc(C(=O)Nc4cccc(Oc5ccc(-c6nnc(*)o6)cc5)c4)cc(N4C(=O)c5ccccc5C4=O)c3)c2)cc1 (repeat unit)
26 | 103.00 | *CCCCCNC(=O)Cc1ccc(C(=O)N*)cc1 (repeat unit)
27 | 12.00 | *CC(*)C(=O)OCCCCCCCCn1c2ccccc2c2ccccc21 (repeat unit)
28 | -4.00 | *CCCCCCOC(=O)OCCOC(=O)OCCCCCCOc1ccc(Oc2ccc(O*)cc2)cc1 (repeat unit)
29 | 235.50 | *Oc1ccc(C2(c3ccc(OC(*)=O)cc3)CC(C)CC(C)(C)C2)cc1 (repeat unit)
30 | 123.50 | *CC(*)c1ccc(N(c2ccccc2)c2ccccc2)cc1 (repeat unit)
31 | 219.00 | *Oc1c(-c2ccccc2)cc(*)cc1-c1cccc(C)c1 (repeat unit)
32 | 163.00 | *CC(*)(C)C(=O)OCc1ccc(/C=C/C(=O)C2c3ccccc3C(=O)c3ccccc32)cc1 (repeat unit)
33 | 215.00 | */N=N/c1ccc(C(=O)NCCCCNC(=O)c2ccc(*)cc2)cc1 (repeat unit)
34 | 50.00 | *c1cc(CCCCCCOC(=O)COc2ccccc2)c(*)s1 (repeat unit)
35 | 155.00 | *Oc1ccc2ccc(Oc3ccc(C(=O)Nc4ccc(C(C)(C)c5ccc(C(C)(C)c6ccc(NC(=O)c7ccc(*)cc7)cc6)cc5)cc4)cc3)cc2c1 (repeat unit)
36 | 148.00 | *Oc1ccc(OC(=O)c2ccc(-c3ccc(C(*)=O)cc3)cc2-c2ccccc2)cc1-c1ccccc1 (repeat unit)
37 | 60.00 | *CC#C/C(C#CCOC(=O)CCCCCCCCC(=O)O*)=C\c1ccc(C#Cc2ccc(C=C(C#Cc3ccccc3)C#Cc3ccccc3)cc2)cc1 (repeat unit)

Second part, the compound before the results:

Row | SMILES | glass transition temperature [°C]
38 | *C(=O)Nc1cc(NC(=O)c2ccc3[nH]c(-c4cc(-c5nc6cc(*)ccc6[nH]5)cc(N5C(=O)c6ccccc6C5=O)c4)nc3c2)cc(-c2nc3ccccc3[nH]2)c1 (repeat unit) | 334.00
39 | *CC(*)(CC(=O)OC(C)C)C(=O)OC(C)C (repeat unit) | 100.00
40 | *c1ccc(Oc2ccc(Oc3ccc(N4C(=O)c5cccc(Oc6cccc7c6C(=O)N(*)C7=O)c5C4=O)cc3)cc2)cc1 (repeat unit) | 260.50 ± 3.5
41 | *CC(*)(Cl)Cl (repeat unit) [Poly(vinylidene chloride)] | -9.83 ± 9.4
42 | *c1ccc(Oc2cccc(Oc3ccc(N4C(=O)c5cccc(Oc6ccc(S(=O)(=O)c7ccc(Oc8cccc9c8C(=O)N(*)C9=O)cc7)cc6)c5C4=O)cc3)c2)cc1 (repeat unit) | 230.00
43 | *c1ccc(*)c(C(=O)c2ccccc2)c1 (repeat unit) | 180.00
44 | *CC(C)(C)C1CC=C(*)CC1 (repeat unit) | 77.00
45 | *Oc1ccc(-c2ccc(Oc3ccc(Oc4ccc(S(=O)(=O)c5ccc(Oc6ccc(*)cc6)cc5)cc4)cc3)c3ccccc23)c2ccccc12 (repeat unit) | 214.00
46 | *OC(C)CCC(C)OC(=O)CCCCCCCCC(*)=O (repeat unit) | -66.00
47 | *Oc1ccc(Sc2ccc(Oc3ccc4c(=O)n5c6cc(Oc7ccc8c(c7)nc7c9ccc(*)c%10cccc(c(=O)n87)c%109)ccc6nc5c5cccc3c45)cc2)cc1 (repeat unit) | 346.00
48 | *C(=O)c1ccc2c(c1)C(=O)N(c1cccc(P(=O)(c3cccc(N4C(=O)c5ccc(*)cc5C4=O)c3)c3cc(C(F)(F)F)cc(C(F)(F)F)c3)c1)C2=O (repeat unit) | 243.00
49 | *c1ccc(Cc2ccc(N3C(=O)c4ccc(Oc5ccc(Oc6ccc7c(c6)C(=O)N(*)C7=O)cc5)cc4C3=O)c(C)c2C)c(C)c1C (repeat unit) | 277.00
50 | *c1ccc(Oc2ccc(C(c3ccc(Oc4ccc(-c5nc(*)nc(-c6ccccc6)n5)cc4)cc3)(C(F)(F)F)C(F)(F)F)cc2)cc1 (repeat unit) | 241.00
51 | *c1ccc(-c2nc3cc(Oc4ccc(NC(=O)c5cc(C(=O)Nc6ccc(Oc7ccc8nc(-c9ccccc9)c(*)nc8c7)cc6)cc(N6C(=O)c7ccccc7C6=O)c5)cc4)ccc3nc2-c2ccccc2)cc1 (repeat unit) | 302.00
52 | *C(=O)Nc1ccc(Oc2cccc3c(NC(=O)c4ccc5c(c4)C(=O)N(c4ccc(Oc6cccc7c(N8C(=O)c9ccc(*)cc9C8=O)cccc67)cc4)C5=O)cccc23)cc1 (repeat unit) | 276.00
53 | *CC(COc1ccccc1)O* (repeat unit) | 42.00
54 | *c1ccc(C(C)(C)c2ccc(N3C(=O)c4ccc(Oc5ccc6ccc(Oc7ccc8c(c7)C(=O)N(*)C8=O)cc6c5)cc4C3=O)cc2)cc1 (repeat unit) | 247.00
55 | *c1ccc(Oc2ccc(-c3nc4cc(Oc5ccc6nc(*)c(-c7ccccc7)nc6c5)ccc4nc3-c3ccccc3)cc2)cc1 (repeat unit) | 243.00
56 | *COC1OC(*)C(O)C(O)C1O (repeat unit) | 200.00
57 | *CC(*)(C)C(=O)OCC(=O)N1CCCC1 (repeat unit) | 144.00
58 | *Oc1ccc(S(=O)(=O)c2ccc(Oc3ccc(C4(c5ccc(Oc6ccc(S(=O)(=O)c7ccc(Oc8ccc(/C=C9\CCC/C(=C\c%10ccc(*)cc%10)C9=O)cc8)cc7)cc6)cc5)CCCCC4)cc3)cc2)cc1 (repeat unit) | 190.00
59 | *C(=O)Nc1ccc(/N=N/c2ccc([N+](=O)[O-])cc2)c(NC(=O)c2ccc3c(c2)C(=O)N(c2c(C)cc(-c4cc(C)c(N5C(=O)c6ccc(*)cc6C5=O)c(C)c4)cc2C)C3=O)c1 (repeat unit) | 278.00
60 | *c1ccc2c(c1)C(=O)N(c1ccc(Oc3cccc(-c4cc(-c5ccccc5)cc(-c5cccc(Oc6ccc(N7C(=O)c8ccc(C(*)(C(F)(F)F)C(F)(F)F)cc8C7=O)cc6)c5)n4)c3)cc1)C2=O (repeat unit) | 180.00
61 | *OC(=O)CCC(=O)OC1COC2C(*)COC12 (repeat unit) | 77.00
62 | *c1ccc(Oc2ccc(C(=O)c3ccc(-c4ccc(C(=O)c5ccc(Oc6ccc(-c7nc(-c8cccc(-c9nc(*)c(-c%10ccccc%10)[nH]9)c8)[nH]c7-c7ccccc7)cc6)cc5)cc4)cc3)cc2)cc1 (repeat unit) | 276.00
63 | *c1cccc(C(c2ccccc2)(c2cccc(N3C(=O)c4ccc(Oc5ccc6c(c5)C(=O)N(*)C6=O)cc4C3=O)c2)C(F)(F)F)c1 (repeat unit) | 293.00
64 | *N=P(*)(C)C (repeat unit) | -42.00
65 | *CC(C)N1C(=O)C2C3C=CC(C4C(=O)N(*)C(=O)C34)C2C1=O (repeat unit) | 212.00
